Measurements: paper PMC5601486, “Identification of 4-phenylquinolin-2(1H)-one as a specific allosteric inhibitor of Akt” (Scientific Reports, 2017)

Key:
Assay in all cases: KINOMEscan
Conditions in all cases: 50000 nM
HIPK3 = tested on: HIPK3
Procedure: KINOMEscan™ selectivity screen
(§1) Briefly, Kinase-tagged T7 phage strains were grown in parallel in an E. coli host derived from the BL21 strain. E. coli were grown to log-phase and infected with T7 phage from a frozen stock and incubated with shaking at 32°C until lysis (90-150 minutes). The kinases were produced in HEK-293 cells and subsequently tagged with DNA for qPCR detection. Streptavidin-coated magnetic beads were treated with biotinylated small molecule ligands to generate affinity resins for kinase
(§2) inhibitor or DMSO control was performed in polypropylene 384-well plates for 1 hr at room temperature. After wash with PBS buffer containing 0.05% Tween 20, the beads were incubated in elution buffer (PBS containing 0.05 % Tween 20 and 0.5 μM non-biotinylated affinity ligand) for 30 minutes at room temperature. The kinase concentration in the eluates was measured by qPCR.

ACVR2B = tested on: ACVR2B
Procedure: KINOMEscan™ selectivity screen
(§3) The assay was perfor med at DiscoveRx Corporation according the methods published previously5. Briefly, Kinase-tagged T7 phage strains were grown in parallel in an E. coli host derived from the BL21 strain. E. coli were grown to log-phase and infected with T7 phage from a frozen stock and incubated with shaking at 32°C until lysis (90-150 minutes). The kinases were produced in HEK-293 cells and subsequently tagged with DNA for qPCR detection. Streptavidin-coated magnetic beads were treated with biotinylated small molecule ligands to generate affinity resins for kinase
as §2

PCTK3 = tested on: PCTK3
Procedure: KINOMEscan™ selectivity screen
as §3, §2

BMPR1A = tested on: BMPR1A
Procedure: KINOMEscan™ selectivity screen
as §3, §2

PAK6 = tested on: PAK6
Procedure: KINOMEscan™ selectivity screen
as §1, §2

PAK3 = tested on: PAK3
Procedure: KINOMEscan™ selectivity screen
as §3, §2

DCAMKL3 = tested on: DCAMKL3
Procedure: KINOMEscan™ selectivity screen
as §1, §2

NEK4 = tested on: NEK4
Procedure: KINOMEscan™ selectivity screen
as §3, §2

WNK3 = tested on: WNK3
Procedure: KINOMEscan™ selectivity screen
as §3, §2

AMPK-alpha1 = tested on: AMPK-alpha1
Procedure: KINOMEscan™ selectivity screen
as §3, §2

TGFBR2 = tested on: TGFBR2
Procedure: KINOMEscan™ selectivity screen
as §3, §2

[1] = tested on: RSK1(Kin.Dom.1-N-terminal)
Procedure: KINOMEscan™ selectivity screen
as §1, §2

PAK7 = tested on: PAK7
Procedure: KINOMEscan™ selectivity screen
as §3, §2

CAMK2A = tested on: CAMK2A
Procedure: KINOMEscan™ selectivity screen
as §3, §2

ABL2 = tested on: ABL2
Procedure: KINOMEscan™ selectivity screen
as §3, §2

FGFR3(G697C) = tested on: FGFR3(G697C)
Procedure: KINOMEscan™ selectivity screen
as §3, §2

LZK = tested on: LZK
Procedure: KINOMEscan™ selectivity screen
as §1, §2

CAMK2D = tested on: CAMK2D
Procedure: KINOMEscan™ selectivity screen
as §1, §2

[2] = tested on: RSK3(Kin.Dom.2-C-terminal)
Procedure: KINOMEscan™ selectivity screen
as §3, §2

EGFR(L858R,T790M) = tested on: EGFR(L858R,T790M)
Procedure: KINOMEscan™ selectivity screen
as §3, §2

AURKC = tested on: AURKC
Procedure: KINOMEscan™ selectivity screen
as §3, §2

MAPKAPK2 = tested on: MAPKAPK2
Procedure: KINOMEscan™ selectivity screen
as §3, §2

MARK3 = tested on: MARK3
Procedure: KINOMEscan™ selectivity screen
as §3, §2

TAOK3 = tested on: TAOK3
Procedure: KINOMEscan™ selectivity screen
as §3, §2

PIM1 = tested on: PIM1
Procedure: KINOMEscan™ selectivity screen
as §3, §2

[3] = tested on: TYK2(JH1domain-catalytic)
Procedure: KINOMEscan™ selectivity screen
as §3, §2

PIK3C2B = tested on: PIK3C2B
Procedure: KINOMEscan™ selectivity screen
as §1, §2

CDK4 = tested on: CDK4
Procedure: KINOMEscan™ selectivity screen
as §1, §2

ASK2 = tested on: ASK2
Procedure: KINOMEscan™ selectivity screen
as §1, §2

CDK2 = tested on: CDK2
Procedure: KINOMEscan™ selectivity screen
as §1, §2

MLK3 = tested on: MLK3
Procedure: KINOMEscan™ selectivity screen
as §3, §2

TBK1 = tested on: TBK1
Procedure: KINOMEscan™ selectivity screen
as §3, §2

KIT(V559D) = tested on: KIT(V559D)
Procedure: KINOMEscan™ selectivity screen
as §1, §2

ROCK1 = tested on: ROCK1
Procedure: KINOMEscan™ selectivity screen
as §1, §2

p38-delta = tested on: p38-delta
Procedure: KINOMEscan™ selectivity screen
as §1, §2

EPHA6 = tested on: EPHA6
Procedure: KINOMEscan™ selectivity screen
as §1, §2

CLK4 = tested on: CLK4
Procedure: KINOMEscan™ selectivity screen
as §3, §2

STK36 = tested on: STK36
Procedure: KINOMEscan™ selectivity screen
as §3, §2

[4] = tested on: ABL1(Q252H)-nonphosphorylated
Procedure: KINOMEscan™ selectivity screen
as §3, §2

MAP4K3 = tested on: MAP4K3
Procedure: KINOMEscan™ selectivity screen
as §3, §2

ERK2 = tested on: ERK2
Procedure: KINOMEscan™ selectivity screen
as §3, §2

NEK3 = tested on: NEK3
Procedure: KINOMEscan™ selectivity screen
as §3, §2

ALK(C1156Y) = tested on: ALK(C1156Y)
Procedure: KINOMEscan™ selectivity screen
as §3, §2

STK39 = tested on: STK39
Procedure: KINOMEscan™ selectivity screen
as §3, §2

KIT(L576P) = tested on: KIT(L576P)
Procedure: KINOMEscan™ selectivity screen
as §1, §2

AKT2 = tested on: AKT2
Procedure: KINOMEscan™ selectivity screen
as §1, §2

PYK2 = tested on: PYK2
Procedure: KINOMEscan™ selectivity screen
Briefly, Kinase-tagged T7 phage strains were grown in parallel in an E. coli host derived from the BL21 strain. E. coli were grown to log-phase and infected with T7 phage from a frozen stock and incubated with shaking at 32°C until lysis (90-150 minutes). The kinases were produced in HEK-293 cells and subsequently tagged with DNA for qPCR detection.
After wash with PBS buffer containing 0.05% Tween 20, the beads were incubated in elution buffer (PBS containing 0.05 % Tween 20 and 0.5 μM non-biotinylated affinity ligand) for 30 minutes at room temperature. The kinase concentration in the eluates was measured by qPCR.

PRKD2 = tested on: PRKD2
Procedure: KINOMEscan™ selectivity screen
as §3, §2

EGFR(E746-A750del) = tested on: EGFR(E746-A750del)
Procedure: KINOMEscan™ selectivity screen
as §1, §2

[5] = tested on: ABL1(M351T)-phosphorylated
Procedure: KINOMEscan™ selectivity screen
The assay was perfor med at DiscoveRx Corporation according the methods published previously5. […] The kinases were produced in HEK-293 cells and subsequently tagged with DNA for qPCR detection. Streptavidin-coated magnetic beads were treated with biotinylated small molecule ligands to generate affinity resins for kinase
as §2

MEK2 = tested on: MEK2
Procedure: KINOMEscan™ selectivity screen
as §3, §2

PAK4 = tested on: PAK4
Procedure: as §1, §2

CAMKK2 = tested on: CAMKK2
Procedure: KINOMEscan™ selectivity screen
as §3, §2

Oc1cc(-c2ccccc2)c2ccccc2n1 [G7, 4-phenylquinolin-2(1H)-one]
Percent Control (HIPK3): 65%
Percent Control (ACVR2B): 100%
Percent Control (PCTK3): 96%
Percent Control (BMPR1A): 100%
Percent Control (PAK6): 87%
Percent Control (PAK3): 81%
Percent Control (DCAMKL3): 91%
Percent Control (NEK4): 95%
Percent Control (WNK3): 98%
Percent Control (AMPK-alpha1): 90%
Percent Control (TGFBR2): 100%
Percent Control [1]: 23%
Percent Control (PAK7): 57%
Percent Control (CAMK2A): 87%
Percent Control (ABL2): 94%
Percent Control (FGFR3(G697C)): 98%
Percent Control (LZK): 94%
Percent Control (CAMK2D): 79%
Percent Control [2]: 59%
Percent Control (EGFR(L858R,T790M)): 90%
Percent Control (AURKC): 66%
Percent Control (MAPKAPK2): 100%
Percent Control (MARK3): 87%
Percent Control (TAOK3): 100%
Percent Control (PIM1): 49%
Percent Control [3]: 72%
Percent Control (PIK3C2B): 100%
Percent Control (CDK4): 100%
Percent Control (ASK2): 78%
Percent Control (CDK2): 88%
Percent Control (MLK3): 88%
Percent Control (TBK1): 95%
Percent Control (KIT(V559D)): 20%
Percent Control (ROCK1): 69%
Percent Control (p38-delta): 100%
Percent Control (EPHA6): 88%
Percent Control (CLK4): 80%
Percent Control (STK36): 95%
Percent Control [4]: 46%
Percent Control (MAP4K3): 89%
Percent Control (ERK2): 93%
Percent Control (NEK3): 68%
Percent Control (ALK(C1156Y)): 80%
Percent Control (STK39): 85%
Percent Control (KIT(L576P)): 22%
Percent Control (AKT2): 93%
Percent Control (PYK2): 93%
Percent Control (PRKD2): 82%
Percent Control (EGFR(E746-A750del)): 70%
Percent Control [5]: 55%
Percent Control (MEK2): 72%
Percent Control (PAK4): 84%
Percent Control (CAMKK2): 90%
